Experimental data taken from article PMC4785065 (Bioorganic & medicinal chemistry letters, 2016).

Molecular target: human topoisomerase IIα (Homo sapiens, UniProt P11388)
Test: DNA cleavage inhibition assay
Assay type: biochemical

Sequence of human topoisomerase IIα (P11388 whole entry): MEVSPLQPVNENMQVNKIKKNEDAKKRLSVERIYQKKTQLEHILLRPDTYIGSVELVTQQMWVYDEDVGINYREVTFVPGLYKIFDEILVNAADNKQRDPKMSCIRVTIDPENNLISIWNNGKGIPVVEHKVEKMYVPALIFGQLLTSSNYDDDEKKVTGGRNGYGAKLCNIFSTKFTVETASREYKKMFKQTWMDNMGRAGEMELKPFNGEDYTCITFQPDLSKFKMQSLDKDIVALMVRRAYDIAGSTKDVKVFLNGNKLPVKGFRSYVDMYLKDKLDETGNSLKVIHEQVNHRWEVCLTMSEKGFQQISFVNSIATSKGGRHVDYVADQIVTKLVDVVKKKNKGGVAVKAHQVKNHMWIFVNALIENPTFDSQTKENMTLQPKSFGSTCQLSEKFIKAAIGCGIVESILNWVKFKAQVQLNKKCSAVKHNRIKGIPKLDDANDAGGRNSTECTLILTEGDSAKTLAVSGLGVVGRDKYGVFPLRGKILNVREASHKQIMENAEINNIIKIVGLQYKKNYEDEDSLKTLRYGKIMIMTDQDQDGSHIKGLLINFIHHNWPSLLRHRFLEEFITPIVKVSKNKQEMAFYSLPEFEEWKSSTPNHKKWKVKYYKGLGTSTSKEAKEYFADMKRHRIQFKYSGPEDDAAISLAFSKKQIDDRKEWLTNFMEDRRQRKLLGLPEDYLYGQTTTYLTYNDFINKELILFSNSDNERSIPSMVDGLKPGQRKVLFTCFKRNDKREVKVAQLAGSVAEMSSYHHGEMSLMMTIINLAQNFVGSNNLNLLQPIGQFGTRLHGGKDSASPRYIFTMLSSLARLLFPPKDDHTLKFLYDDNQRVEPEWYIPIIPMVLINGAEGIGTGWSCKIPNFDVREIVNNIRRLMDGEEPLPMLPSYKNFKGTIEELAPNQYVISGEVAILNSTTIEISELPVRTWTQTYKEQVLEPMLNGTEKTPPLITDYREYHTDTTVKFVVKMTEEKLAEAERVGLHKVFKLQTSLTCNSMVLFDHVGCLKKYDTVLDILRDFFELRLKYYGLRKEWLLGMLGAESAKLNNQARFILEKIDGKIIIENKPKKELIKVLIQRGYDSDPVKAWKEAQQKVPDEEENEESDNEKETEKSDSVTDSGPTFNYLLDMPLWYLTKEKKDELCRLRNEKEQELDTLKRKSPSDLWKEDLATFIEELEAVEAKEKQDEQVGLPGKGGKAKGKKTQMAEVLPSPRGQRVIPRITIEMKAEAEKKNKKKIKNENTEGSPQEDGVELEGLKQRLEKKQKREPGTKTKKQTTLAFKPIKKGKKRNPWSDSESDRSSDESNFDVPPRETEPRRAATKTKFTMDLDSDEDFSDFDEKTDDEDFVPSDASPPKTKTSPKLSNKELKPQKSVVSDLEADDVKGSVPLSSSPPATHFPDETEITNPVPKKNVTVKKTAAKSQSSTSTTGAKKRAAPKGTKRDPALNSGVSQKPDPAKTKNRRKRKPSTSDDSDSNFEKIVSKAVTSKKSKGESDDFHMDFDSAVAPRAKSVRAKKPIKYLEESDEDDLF

Cc1c2ccncc2c(C)c2c1[nH]c1ccccc12 [ET, 5,11-dimethyl-6H-pyrido[4,3-b]carbazole]
IC50: > 200 µM
